The text below walks through data of patent US20240132431A1, “METHOD FOR ALKYLATING ACIDIC FUNCTIONAL GROUP” (Chugai Seiyaku Kabushiki Kaisha, priority 2021, published 2024).

This test concerns the target T1, Bcl-2 protein (Recombinant Human Bcl-2 Protein) (Homo sapiens, UniProt P10415).
T1 construct: purchased Novus NBP2-34889
Put plainly: Binding evaluation of mixture library compounds to Bcl-2 using AS-MS (affinity selection mass spectrometry). The note with it: AS-MS, mixture of 1200 compounds, Bcl-2, ASMS Ratio(%)=(A−C)/B×100; for ASMS ratio (%) n = 1: replicate n = 1; for ASMS ratio (%) n = 2: replicate n = 2. Put shortly: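 Bcl-2 binding is scored from LC/MS signal retained with protein through gel-filtration spin columns, normalised to unfiltered and protein-free controls. Incubation: 20 μM protein, […] per compound, 1 h, 23° C.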

T1 sequence (P10415 whole entry): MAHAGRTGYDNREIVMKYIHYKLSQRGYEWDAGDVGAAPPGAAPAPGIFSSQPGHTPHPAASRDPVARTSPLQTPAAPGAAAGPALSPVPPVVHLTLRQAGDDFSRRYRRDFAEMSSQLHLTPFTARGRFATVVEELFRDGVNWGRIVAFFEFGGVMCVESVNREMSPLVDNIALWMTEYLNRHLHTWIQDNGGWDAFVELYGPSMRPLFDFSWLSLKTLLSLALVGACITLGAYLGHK

On to `CCOc1cncc(-c2cc(C(=O)N3CCN(c4ccc(C(=O)NCC56CC7CC(CC(C7)C5)C6)nn4)CC3)cc(C(F)(F)F)c2)c1` [B1A018-01, N-(1-Adamantylmethyl)-6-[4-[3-(5-ethoxypyridin-3-yl)-5-(trifluoromethyl)benzoyl]piperazin-1-yl]pyridazine-3-carboxamide], for which the “ASMS ratio (%) n = 1” value was −6.5% and the “ASMS ratio (%) n = 2” value stood at 9.9%.

As for `CCOc1cccc(C#Cc2cc(C(=O)N3CCN(c4ccc(C(=O)NCC56CC7CC(CC(C7)C5)C6)nn4)CC3)cc(C(F)(F)F)c2)c1` [B1A019-01, N-(1-Adamantylmethyl)-6-[4-[3-[2-(3-ethoxyphenyl)ethynyl]-5-(trifluoromethyl)benzoyl]piperazin-1-yl]pyridazine-3-carboxamide], the “ASMS ratio (%) n = 1” value is on record as −3.9% and the “ASMS ratio (%) n = 2” value is −7.5%.

For `CCOc1cncc(C#Cc2cc(C(=O)N3CCN(c4ccc(C(=O)NCC56CC7CC(CC(C7)C5)C6)nn4)CC3)cc(C(F)(F)F)c2)c1` [B1A020-01, N-(1-Adamantylmethyl)-6-[4-[3-[2-(5-ethoxypyridin-3-yl)ethynyl]-5-(trifluoromethyl)benzoyl]piperazin-1-yl]pyridazine-3-carboxamide], the “ASMS ratio (%) n = 1” value is given as −4.3% and the “ASMS ratio (%) n = 2” value is reported as −10.5%.

As for `CCOc1cccc(-c2cnn(-c3cc(C(=O)N4CCN(c5ccc(C(=O)NCC67CC8CC(CC(C8)C6)C7)nn5)CC4)cc(C(F)(F)F)c3)c2)c1` [B1A021-01, N-(1-Adamantylmethyl)-6-[4-[3-[4-(3-ethoxyphenyl)pyrazol-1-yl]-5-(trifluoromethyl)benzoyl]piperazin-1-yl]pyridazine-3-carboxamide], the “ASMS ratio (%) n = 1” value is given as −1.3% and the “ASMS ratio (%) n = 2” value is −3.7%.

For the compound `CCOc1cncc(-c2cnn(-c3cc(C(=O)N4CCN(c5ccc(C(=O)NCC67CC8CC(CC(C8)C6)C7)nn5)CC4)cc(C(F)(F)F)c3)c2)c1` [B1A022-01, N-(1-Adamantylmethyl)-6-[4-[3-[4-(5-ethoxypyridin-3-yl)pyrazol-1-yl]-5-(trifluoromethyl)benzoyl]piperazin-1-yl]pyridazine-3-carboxamide], the “ASMS ratio (%) n = 1” value is recorded as 8.0% and the “ASMS ratio (%) n = 2” value worked out at 7.7%.

As to `CCOc1cccc(-c2csc(C(=O)N3CCN(c4ccc(C(=O)NCC56CC7CC(CC(C7)C5)C6)cc4)CC3)c2)c1` [B1A023-01, N-(1-Adamantylmethyl)-4-[4-[4-(3-ethoxyphenyl)thiophene-2-carbonyl]piperazin-1-yl]benzamide], the “ASMS ratio (%) n = 1” value is on record as 4.0% and the “ASMS ratio (%) n = 2” value was found to be 0.8%.

For the compound `CCOc1cncc(-c2csc(C(=O)N3CCN(c4ccc(C(=O)NCC56CC7CC(CC(C7)C5)C6)cc4)CC3)c2)c1` [B1A024-01, N-(1-Adamantylmethyl)-4-[4-[4-(5-ethoxypyridin-3-yl)thiophene-2-carbonyl]piperazin-1-yl]benzamide], the “ASMS ratio (%) n = 1” value was determined as 4.1% and the “ASMS ratio (%) n = 2” value was determined as 1.2%.

As for `CCOc1cccc(-c2ccc(C(=O)N3CCN(c4ccc(C(=O)NCC56CC7CC(CC(C7)C5)C6)cc4)CC3)cc2C)c1` [B1A025-01, N-(1-Adamantylmethyl)-4-[4-[4-(3-ethoxyphenyl)-3-methylbenzoyl]piperazin-1-yl]benzamide], the “ASMS ratio (%) n = 1” value turned out to be 7.4% and the “ASMS ratio (%) n = 2” value is −16.1%.

For the compound `CCOc1cncc(-c2ccc(C(=O)N3CCN(c4ccc(C(=O)NCC56CC7CC(CC(C7)C5)C6)cc4)CC3)cc2C)c1` [B1A026-01, N-(1-Adamantylmethyl)-4-[4-[4-(5-ethoxypyridin-3-yl)-3-methylbenzoyl]piperazin-1-yl]benzamide], the “ASMS ratio (%) n = 1” value is 3.0% and the “ASMS ratio (%) n = 2” value is −2.9%.

On to `CCOc1cccc(-c2ccc(C(=O)N3CCN(c4ccc(C(=O)NCC56CC7CC(CC(C7)C5)C6)cc4)CC3)cc2F)c1` [B1A027-01, N-(1-Adamantylmethyl)-4-[4-[4-(3-ethoxyphenyl)-3-fluorobenzoyl]piperazin-1-yl]benzamide], for which the “ASMS ratio (%) n = 1” value was 6.7% and the “ASMS ratio (%) n = 2” value is −7.8%.

As to `CCOc1cncc(-c2ccc(C(=O)N3CCN(c4ccc(C(=O)NCC56CC7CC(CC(C7)C5)C6)cc4)CC3)cc2F)c1` [B1A028-01, N-(1-Adamantylmethyl)-4-[4-[4-(5-ethoxypyridin-3-yl)-3-fluorobenzoyl]piperazin-1-yl]benzamide], the “ASMS ratio (%) n = 1” value is reported as −1.6% and the “ASMS ratio (%) n = 2” value is reported as −4.7%.

Turning to `CCOc1cccc(C#Cc2ccccc2C(=O)N2CCN(c3ccc(C(=O)NCC45CC6CC(CC(C6)C4)C5)cc3)CC2)c1` [B1A029-01, N-(1-Adamantylmethyl)-4-[4-[2-[2-(3-ethoxyphenyl)ethynyl]benzoyl]piperazin-1-yl]benzamide], the “ASMS ratio (%) n = 1” value is recorded as −22.3% and the “ASMS ratio (%) n = 2” value is on record as −13.0%.

With `CCOc1cncc(C#Cc2ccccc2C(=O)N2CCN(c3ccc(C(=O)NCC45CC6CC(CC(C6)C4)C5)cc3)CC2)c1` [B1A030-01, N-(1-Adamantylmethyl)-4-[4-[2-[2-(5-ethoxypyridin-3-yl)ethynyl]benzoyl]piperazin-1-yl]benzamide], the “ASMS ratio (%) n = 1” value is 6.9% and the “ASMS ratio (%) n = 2” value is listed as −1.8%.

For `CCOc1cccc(C#Cc2cncc(C(=O)N3CCN(c4ccc(C(=O)NCC56CC7CC(CC(C7)C5)C6)cc4)CC3)c2)c1` [B1A031-01, N-(1-Adamantylmethyl)-4-[4-[5-[2-(3-ethoxyphenyl)ethynyl]pyridine-3-carbonyl]piperazin-1-yl]benzamide], the “ASMS ratio (%) n = 1” value came to 6.9% and the “ASMS ratio (%) n = 2” value was −1.8%.

As for `CCOc1cncc(C#Cc2cncc(C(=O)N3CCN(c4ccc(C(=O)NCC56CC7CC(CC(C7)C5)C6)cc4)CC3)c2)c1` [B1A032-01, N-(1-Adamantylmethyl)-4-[4-[5-[2-(5-ethoxypyridin-3-yl)ethynyl]pyridine-3-carbonyl]piperazin-1-yl]benzamide], the “ASMS ratio (%) n = 1” value was 0.0% and the “ASMS ratio (%) n = 2” value is recorded as −9.1%.

With `CCOc1cccc(-c2ccccc2CCC(=O)N2CCN(c3ccc(C(=O)NCC45CC6CC(CC(C6)C4)C5)cc3)CC2)c1` [B1A033-01, N-(1-Adamantylmethyl)-4-[4-[3-[2-(3-ethoxyphenyl)phenyl]propanoyl]piperazin-1-yl]benzamide], the “ASMS ratio (%) n = 1” value came out at 3.3% and the “ASMS ratio (%) n = 2” value is −13.3%.

As to `CCOc1cncc(-c2ccccc2CCC(=O)N2CCN(c3ccc(C(=O)NCC45CC6CC(CC(C6)C4)C5)cc3)CC2)c1` [B1A034-01, N-(1-Adamantylmethyl)-4-[4-[3-[2-(5-ethoxypyridin-3-yl)phenyl]propanoyl]piperazin-1-yl]benzamide], the “ASMS ratio (%) n = 1” value stood at 5.2% and the “ASMS ratio (%) n = 2” value is given as −3.2%.

In the case of `CCOc1cccc(-c2ccc(C(=O)N3CCN(c4ccc(C(=O)NCC56CC7CC(CC(C7)C5)C6)cc4)CC3)c3ccccc23)c1` [B1A035-01, N-(1-Adamantylmethyl)-4-[4-[4-(3-ethoxyphenyl)naphthalene-1-carbonyl]piperazin-1-yl]benzamide], the “ASMS ratio (%) n = 1” value is on record as 14.9% and the “ASMS ratio (%) n = 2” value is −7.0%.

For `CCOc1cncc(-c2ccc(C(=O)N3CCN(c4ccc(C(=O)NCC56CC7CC(CC(C7)C5)C6)cc4)CC3)c3ccccc23)c1` [B1A036-01, N-(1-Adamantylmethyl)-4-[4-[4-(5-ethoxypyridin-3-yl)naphthalene-1-carbonyl]piperazin-1-yl]benzamide], the “ASMS ratio (%) n = 1” value was found to be 0.4% and the “ASMS ratio (%) n = 2” value worked out at 3.1%.

As to `CCOc1cccc(-c2cc(C(=O)N3CCN(c4ccc(C(=O)NCC56CC7CC(CC(C7)C5)C6)cc4)CC3)cc(C(C)(C)C)c2)c1` [B1A037-01, N-(1-Adamantylmethyl)-4-[4-[3-tert-butyl-5-(3-ethoxyphenyl)benzoyl]piperazin-1-yl]benzamide], the “ASMS ratio (%) n = 1” value is 3.3% and the “ASMS ratio (%) n = 2” value is −5.0%.

As to `CCOc1cncc(-c2cc(C(=O)N3CCN(c4ccc(C(=O)NCC56CC7CC(CC(C7)C5)C6)cc4)CC3)cc(C(C)(C)C)c2)c1` [B1A038-01, N-(1-Adamantylmethyl)-4-[4-[3-tert-butyl-5-(5-ethoxypyridin-3-yl)benzoyl]piperazin-1-yl]benzamide], the “ASMS ratio (%) n = 1” value worked out at 6.5% and the “ASMS ratio (%) n = 2” value was −6.4%.

For `CCOc1cccc(-c2cc(C(=O)N3CCN(c4ccc(C(=O)NCC56CC7CC(CC(C7)C5)C6)cc4)CC3)cc(C(F)(F)F)c2)c1` [B1A039-01, N-(1-Adamantylmethyl)-4-[4-[3-(3-ethoxyphenyl)-5-(trifluoromethyl)benzoyl]piperazin-1-yl]benzamide], the “ASMS ratio (%) n = 1” value is 6.3% and the “ASMS ratio (%) n = 2” value is listed as −8.4%.

For `CCOc1cncc(-c2cc(C(=O)N3CCN(c4ccc(C(=O)NCC56CC7CC(CC(C7)C5)C6)cc4)CC3)cc(C(F)(F)F)c2)c1` [B1A040-01, N-(1-Adamantylmethyl)-4-[4-[3-(5-ethoxypyridin-3-yl)-5-(trifluoromethyl)benzoyl]piperazin-1-yl]benzamide], the “ASMS ratio (%) n = 1” value is reported as 10.4% and the “ASMS ratio (%) n = 2” value is 8.4%.

Consider `CCOc1cccc(C#Cc2cc(C(=O)N3CCN(c4ccc(C(=O)NCC56CC7CC(CC(C7)C5)C6)cc4)CC3)cc(C(F)(F)F)c2)c1` [B1A041-01, N-(1-Adamantylmethyl)-4-[4-[3-[2-(3-ethoxyphenyl)ethynyl]-5-(trifluoromethyl)benzoyl]piperazin-1-yl]benzamide], for which the “ASMS ratio (%) n = 1” value is −2.4% and the “ASMS ratio (%) n = 2” value is reported as −4.0%.
